Experimental data taken from the NIST ThermoML archive (doi:10.1016/j.fluid.2015.03.038).
Where “and” joins values, the source holds several entries; their conditions need not be identical. Identical values can stand only once. Numbers after ± are expanded uncertainties.

Settings: Liquid

OCC(O)CO [glycerol]
Settings	vapor or sublimation pressure
303.59 K, static (had to override TRC unc)	4.15e-05 ± 7e-07 kPa
303.61 K, static (had to override TRC unc)	4.19e-05 ± 7e-07 kPa
304.56 K, static (had to override TRC unc)	4.68e-05 ± 7e-07 kPa
306.03 K, static (had to override TRC unc)	5.56e-05 ± 8e-07 kPa
308.43 K, static (had to override TRC unc)	7.28e-05 ± 9e-07 kPa
310.89 K, static (had to override TRC unc)	9.63e-05 ± 1e-06 kPa
313.29 K, static (had to override TRC unc)	0.000125 ± 1.1e-06 kPa
315.71 K, static (had to override TRC unc)	0.0001634 ± 1.3e-06 kPa
318.12 K, static (had to override TRC unc)	0.0002107 ± 1.5e-06 kPa
320.57 K, static (had to override TRC unc)	0.0002701 ± 1.9e-06 kPa
322.95 K, static (had to override TRC unc)	0.0003472 ± 2.1e-06 kPa
325.42 K, static (had to override TRC unc)	0.0004428 ± 2.7e-06 kPa
327.82 K, static (had to override TRC unc)	0.0005644 ± 3.4e-06 kPa
330.3 K, static (had to override TRC unc)	0.0007165 ± 4.3e-06 kPa
332.72 K, static (had to override TRC unc)	0.0009037 ± 5.4e-06 kPa
335.14 K, static (had to override TRC unc)	0.001132 ± 5.7e-06 kPa
338.2 K, transpiration (had to override TRC unc)	0.00151 ± 4e-05 kPa
338.25 K, static (had to override TRC unc)	0.001502 ± 7.5e-06 kPa
340.68 K, static (had to override TRC unc)	0.001872 ± 9.4e-06 kPa
341.7 K, transpiration (had to override TRC unc)	0.0021 ± 6e-05 kPa
343.08 K, static (had to override TRC unc)	0.00232 ± 1.2e-05 kPa
345.51 K, static (had to override TRC unc)	0.002876 ± 1.4e-05 kPa
347.7 K, transpiration (had to override TRC unc)	0.00355 ± 9e-05 kPa
347.91 K, static (had to override TRC unc)	0.003529 ± 1.8e-05 kPa
350.34 K, static (had to override TRC unc)	0.00436 ± 2.2e-05 kPa
351.5 K, transpiration (had to override TRC unc)	0.00503 ± 0.00013 kPa
352.57 K, static (had to override TRC unc)	0.00526 ± 7.9e-05 kPa
352.58 K, static (had to override TRC unc)	0.00527 ± 7.4e-05 kPa
352.6 K, static (had to override TRC unc)	0.00528 ± 7.4e-05 kPa
352.73 K, static (had to override TRC unc)	0.005318 ± 2.7e-05 kPa
354.5 K, transpiration (had to override TRC unc)	0.00631 ± 0.00018 kPa
354.98 K, static (had to override TRC unc)	0.00639 ± 8.3e-05 kPa
354.99 K, static (had to override TRC unc)	0.00641 ± 8.3e-05 kPa
355.18 K, static (had to override TRC unc)	0.006488 ± 3.2e-05 kPa
357.39 K, static (had to override TRC unc)	0.00777 ± 8.6e-05 kPa
357.42 K, static (had to override TRC unc)	0.00782 ± 8.6e-05 kPa
357.5 K, transpiration (had to override TRC unc)	0.00831 ± 0.00023 kPa
357.57 K, static (had to override TRC unc)	0.007863 ± 3.9e-05 kPa
359.8 K, static (had to override TRC unc)	0.00938 ± 9.4e-05 kPa
359.82 K, static (had to override TRC unc)	0.00939 ± 9.4e-05 kPa
360.01 K, static (had to override TRC unc)	0.009523 ± 4.8e-05 kPa
360.1 K, transpiration (had to override TRC unc)	0.00989 ± 0.00027 kPa
362.42 K, static (had to override TRC unc)	0.01146 ± 5.7e-05 kPa
362.63 K, static (had to override TRC unc)	0.0117 ± 0.00011 kPa
362.66 K, static (had to override TRC unc)	0.01179 ± 0.00011 kPa
363.2 K, transpiration (had to override TRC unc)	0.01274 ± 0.00034 kPa
364.82 K, static (had to override TRC unc)	0.0138 ± 0.00012 kPa
365.07 K, static (had to override TRC unc)	0.0141 ± 0.00013 kPa
365.08 K, static (had to override TRC unc)	0.01409 ± 0.00013 kPa
365.9 K, transpiration (had to override TRC unc)	0.01529 ± 0.00041 kPa
367.45 K, static (had to override TRC unc)	0.01686 ± 0.00013 kPa
367.48 K, static (had to override TRC unc)	0.01696 ± 0.00014 kPa
369.89 K, static (had to override TRC unc)	0.0202 ± 0.00014 kPa
369.91 K, static (had to override TRC unc)	0.02016 ± 0.00014 kPa
370.3 K, transpiration (had to override TRC unc)	0.0208 ± 0.00054 kPa
372.27 K, static (had to override TRC unc)	0.024 ± 0.00017 kPa
372.29 K, static (had to override TRC unc)	0.02415 ± 0.00017 kPa
374.7 K, static (had to override TRC unc)	0.0286 ± 0.0002 kPa
374.73 K, static (had to override TRC unc)	0.0286 ± 0.0002 kPa
377.08 K, static (had to override TRC unc)	0.03379 ± 0.0002 kPa
377.11 K, static (had to override TRC unc)	0.03408 ± 0.0002 kPa
377.77 K, static (had to override TRC unc)	0.03569 ± 0.00021 kPa
380.17 K, static (had to override TRC unc)	0.04186 ± 0.00025 kPa
380.19 K, static (had to override TRC unc)	0.04192 ± 0.00025 kPa
382.55 K, static (had to override TRC unc)	0.04942 ± 0.0003 kPa
382.59 K, static (had to override TRC unc)	0.04972 ± 0.0003 kPa and 0.0496 ± 0.0003 kPa
384.99 K, static (had to override TRC unc)	0.0582 ± 0.00035 kPa
385.01 K, static (had to override TRC unc)	0.05821 ± 0.00035 kPa
387.37 K, static (had to override TRC unc)	0.06807 ± 0.00041 kPa
387.39 K, static (had to override TRC unc)	0.06861 ± 0.00041 kPa
389.8 K, static (had to override TRC unc)	0.07986 ± 0.00048 kPa
389.83 K, static (had to override TRC unc)	0.07998 ± 0.00048 kPa
392.18 K, static (had to override TRC unc)	0.09311 ± 0.00056 kPa
392.2 K, static (had to override TRC unc)	0.09367 ± 0.00056 kPa
394.61 K, static (had to override TRC unc)	0.1087 ± 0.00054 kPa
394.64 K, static (had to override TRC unc)	0.1087 ± 0.00054 kPa
397 K, static (had to override TRC unc)	0.1258 ± 0.00063 kPa
397.02 K, static (had to override TRC unc)	0.1266 ± 0.00063 kPa
399.42 K, static (had to override TRC unc)	0.1462 ± 0.00073 kPa
399.45 K, static (had to override TRC unc)	0.1464 ± 0.00073 kPa
401.81 K, static (had to override TRC unc)	0.1688 ± 0.00084 kPa and 0.1687 ± 0.00084 kPa
401.83 K, static (had to override TRC unc)	0.1694 ± 0.00085 kPa
404.23 K, static (had to override TRC unc)	0.1952 ± 0.001 kPa
404.26 K, static (had to override TRC unc)	0.1952 ± 0.00098 kPa
406.62 K, static (had to override TRC unc)	0.2242 ± 0.0011 kPa and 0.224 ± 0.0011 kPa
406.64 K, static (had to override TRC unc)	0.2251 ± 0.0011 kPa
409.68 K, static (had to override TRC unc)	0.2687 ± 0.0013 kPa
409.69 K, static (had to override TRC unc)	0.269 ± 0.0013 kPa
412.08 K, static (had to override TRC unc)	0.308 ± 0.0015 kPa
412.11 K, static (had to override TRC unc)	0.3089 ± 0.0015 kPa
414.48 K, static (had to override TRC unc)	0.3526 ± 0.0018 kPa
414.49 K, static (had to override TRC unc)	0.3526 ± 0.0018 kPa
416.89 K, static (had to override TRC unc)	0.4023 ± 0.002 kPa
416.92 K, static (had to override TRC unc)	0.4033 ± 0.002 kPa
419.3 K, static (had to override TRC unc)	0.4585 ± 0.0023 kPa and 0.4583 ± 0.0023 kPa
421.7 K, static (had to override TRC unc)	0.521 ± 0.0026 kPa
421.73 K, static (had to override TRC unc)	0.5224 ± 0.0026 kPa
424.1 K, static (had to override TRC unc)	0.5919 ± 0.003 kPa
424.11 K, static (had to override TRC unc)	0.5923 ± 0.003 kPa
426.5 K, static (had to override TRC unc)	0.6698 ± 0.0034 kPa
426.53 K, static (had to override TRC unc)	0.6725 ± 0.0034 kPa
428.91 K, static (had to override TRC unc)	0.7586 ± 0.0038 kPa and 0.7584 ± 0.0038 kPa
431.31 K, static (had to override TRC unc)	0.8565 ± 0.0043 kPa
431.34 K, static (had to override TRC unc)	0.8583 ± 0.0043 kPa
433.72 K, static (had to override TRC unc)	0.9653 ± 0.0048 kPa
433.73 K, static (had to override TRC unc)	0.9671 ± 0.0048 kPa
436.11 K, static (had to override TRC unc)	1.086 ± 0.0054 kPa
436.13 K, static (had to override TRC unc)	1.087 ± 0.0054 kPa
